The NIST ThermoML archive (doi:10.1016/j.tca.2012.07.034)
Numbers after ± are expanded uncertainties.

Conditions: Liquid, DSC

CCCCCCCC/C=C\CCCCCCCC(=O)O [(Z)-9-octadecenoic acid]
vapor or sublimation pressure (496.7 K): 1.333 ± 0.12 kPa
vapor or sublimation pressure (513.1 K): 2.666 ± 0.13 kPa
vapor or sublimation pressure (524.7 K): 4 ± 0.16 kPa
vapor or sublimation pressure (532.1 K): 5.333 ± 0.19 kPa
vapor or sublimation pressure (538.8 K): 6.666 ± 0.22 kPa
vapor or sublimation pressure (543.8 K): 7.999 ± 0.28 kPa
vapor or sublimation pressure (547.4 K): 9.333 ± 0.32 kPa

CCCCCCCCCCCC(=O)O [dodecanoic acid]
vapor or sublimation pressure (444.6 K): 1.333 ± 0.13 kPa
vapor or sublimation pressure (458.9 K): 2.666 ± 0.14 kPa
vapor or sublimation pressure (468.5 K): 4 ± 0.17 kPa
vapor or sublimation pressure (475 K): 5.333 ± 0.22 kPa
vapor or sublimation pressure (479.6 K): 6.666 ± 0.25 kPa
vapor or sublimation pressure (484.8 K): 7.999 ± 0.23 kPa
vapor or sublimation pressure (490.5 K): 9.333 ± 0.23 kPa

CCCCCCCCCCCCCCCC(=O)O [hexadecanoic acid]
vapor or sublimation pressure (483.3 K): 1.333 ± 0.12 kPa
vapor or sublimation pressure (498.6 K): 2.666 ± 0.14 kPa
vapor or sublimation pressure (509 K): 4 ± 0.16 kPa
vapor or sublimation pressure (517.3 K): 5.333 ± 0.19 kPa
vapor or sublimation pressure (523.4 K): 6.666 ± 0.23 kPa
vapor or sublimation pressure (527.9 K): 7.999 ± 0.25 kPa
vapor or sublimation pressure (533.4 K): 9.333 ± 0.23 kPa

CCCCCCCCCCCCCCCCCC(=O)O [octadecanoic acid]
vapor or sublimation pressure (501.3 K): 1.333 ± 0.12 kPa
vapor or sublimation pressure (519.1 K): 2.666 ± 0.13 kPa
vapor or sublimation pressure (528.9 K): 4 ± 0.17 kPa
vapor or sublimation pressure (535.9 K): 5.333 ± 0.18 kPa
vapor or sublimation pressure (543.7 K): 6.666 ± 0.2 kPa
vapor or sublimation pressure (548.7 K): 7.999 ± 0.26 kPa
vapor or sublimation pressure (553.2 K): 9.333 ± 0.27 kPa

CCCCCCCCCCCCCC(=O)O [tetradecanoic acid]
vapor or sublimation pressure (464.6 K): 1.333 ± 0.12 kPa
vapor or sublimation pressure (480.8 K): 2.666 ± 0.14 kPa
vapor or sublimation pressure (489.5 K): 4 ± 0.17 kPa
vapor or sublimation pressure (497.2 K): 5.333 ± 0.19 kPa
vapor or sublimation pressure (503.1 K): 6.666 ± 0.23 kPa
vapor or sublimation pressure (508.2 K): 7.999 ± 0.26 kPa
vapor or sublimation pressure (512.6 K): 9.333 ± 0.27 kPa
